Laboratory results reported in patent publication US10723723B2, “Substituted bicycle heterocyclic derivatives useful as ROMK channel inhibitors” (BRISTOL-MYERS SQUIBB COMPANY, priority 2016, dated 2020).

molecular target: hROMK (human Kir1.1) (Homo sapiens (Human), UniProt P48048); assay: Thallium Flux Assay (FluxOR, CHO T-Rex hROMK stable cell line); format: cell-based; details: CHO T-Rex hROMK cells, 10-point concentration response curve; read-out: Human ROMK TH Flux IC50
Sequence (P48048 whole entry): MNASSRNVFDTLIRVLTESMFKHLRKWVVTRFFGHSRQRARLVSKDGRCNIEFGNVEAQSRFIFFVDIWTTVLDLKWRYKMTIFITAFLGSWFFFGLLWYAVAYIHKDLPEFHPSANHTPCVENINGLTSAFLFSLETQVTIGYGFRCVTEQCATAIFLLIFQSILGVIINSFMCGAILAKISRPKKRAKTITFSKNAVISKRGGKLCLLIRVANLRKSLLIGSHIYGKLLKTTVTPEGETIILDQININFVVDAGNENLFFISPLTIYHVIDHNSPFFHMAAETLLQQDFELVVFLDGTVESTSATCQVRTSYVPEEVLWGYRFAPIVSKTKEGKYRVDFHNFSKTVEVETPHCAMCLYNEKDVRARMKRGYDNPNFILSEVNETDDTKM

| Structure (SMILES) | IC50 [µM] |
| --- | --- |
| Cc1c(C(O)CN(C)Cc2ccc(-c3ccc4oc(=O)n(C)c4c3)nc2)ccc2c1COC2=O (single isomer, unassigned) [Example 1-II, 5-(5-(((2-hydroxy-2-(4-methyl-1-oxo-1,3-dihydroisobenzofuran-5-yl)ethyl)(methyl)amino)methyl)pyridin-2-yl)-3-methylbenzo[d]oxazol-2(3H)-one] | 0.83 |
| Cc1c([C@@H](O)CNCc2cnn(-c3cc(OC(C)C)c(C#N)cn3)c2)ccc2c1COC2=O [Example 157, (R)-6-(4-(((2-hydroxy-2-(4-methyl-1-oxo-1,3-dihydroisobenzofuran-5-yl)ethyl)amino)methyl)-1H-pyrazol-1-yl)-4-isopropoxynicotinonitrile] | 0.031 |
| Cc1c(C(O)CNCc2ccc3c(cnn3-c3ccc(F)cc3)c2)ccc2c1COC2=O (single isomer, unassigned) [Example 16-I, 5-(2-(((1-(4-fluorophenyl)-1H-indazol-5-yl)methyl)amino)-1-hydroxyethyl)-4-methylisobenzofuran-1(3H)-one] | 0.48 |
| Cc1cc(-n2cc(CNC[C@@H](c3ccc4c(c3C)COC4=O)N(C)C)cn2)ncc1C#N [Example 174, (R)-6-(4-(((2-(dimethylamino)-2-(4-methyl-1-oxo-1,3-dihydroisobenzofuran-5-yl)ethyl)amino)methyl)-1H-pyrazol-1-yl)-4-methylnicotinonitrile] | 11.6 |
| Cc1cc(-c2nc(CNC[C@H](O)c3ccc4c(c3C)COC4=O)n(C)n2)ncc1C#N [Example 42, (R)-6-(5-(((2-hydroxy-2-(4-methyl-1-oxo-1,3-dihydroisobenzofuran-5-yl)ethyl)amino)methyl)-1-methyl-1H-1,2,4-triazol-3-yl)-4-methylnicotinonitrile] | 0.855 |
| Cc1c(C(O)CN(C)Cc2ccc(-c3ccc(C#N)c(F)c3)cc2)ccc2c1COC2=O (single isomer, unassigned) [Example 27-II, 3-fluoro-4′-(((2-hydroxy-2-(4-methyl-1-oxo-1,3-dihydroisobenzofuran-5-yl)ethyl)(methyl)amino)methyl)-[1,1′-biphenyl]-4-carbonitrile] | 0.24 |
| Cc1cc(-n2cc(CNC[C@@H](c3ccc4c(c3C)COC4=O)N3CCCS3(=O)=O)cn2)ncc1C#N [Example 66, (R)-6-(4-(((2-(1,1-dioxidoisothiazolidin-2-yl)-2-(4-methyl-1-oxo-1,3-dihydroisobenzofuran-5-yl)ethyl)amino)methyl)-1H-pyrazol-1-yl)-4-methylnicotinonitrile] | 0.26 |
| Cc1c([C@@H](O)CNCc2cnn(-c3ccnc4c3ccn4C)c2)ccc2c1COC2=O [Example 166, (R)-5-(1-hydroxy-2-(((1-(1-methyl-1H-pyrrolo[2,3-b]pyridin-4-yl)-1H-pyrazol-4-yl)methyl)amino)ethyl)-4-methylisobenzofuran-1(3H)-one] | 1.3 |
| Cc1cc(-n2cc(CNC[C@H](O)c3ccc4c(c3C)COC4=O)c3ncccc32)ncc1C#N [Example 168, (R)-6-(3-(((2-hydroxy-2-(4-methyl-1-oxo-1,3-dihydroisobenzofuran-5-yl)ethyl)amino)methyl)-1H-pyrrolo[3,2-b]pyridin-1-yl)-4-methylnicotinonitrile] | 0.12 |
| Cc1cn(-c2ncc(CNC[C@H](O)c3ccc4c(c3C)COC4=O)cc2F)cn1 (single isomer, unassigned) [Example 83] | 0.046 |
| Cc1c(C(CO)N(C)Cc2cnc(-c3ccc4oc(=O)n(C)c4c3)nc2)ccc2c1COC2=O (single isomer, unassigned) [Example 14-I, 5-(5-(((2-hydroxy-1-(4-methyl-1-oxo-1,3-dihydroisobenzofuran-5-yl)ethyl)(methyl)amino)methyl)pyrimidin-2-yl)-3-methylbenzo[d]oxazol-2(3H)-one] | 4 |
| Cc1c([C@@H](O)CNCc2cnn(-c3ccc4oc(=O)[nH]c4c3)c2)ccc2c1COC2=O [Example 121, (R)-5-(4-(((2-hydroxy-2-(4-methyl-1-oxo-1,3-dihydroisobenzofuran-5-yl)ethyl)amino)methyl)-1H-pyrazol-1-yl)benzo[d]oxazol-2(3H)-one] | 0.16 |
| CN(Cc1ccc(-c2ccc3oc(=O)n(C)c3c2)nc1)CC(O)c1ccc2oc(=O)n(C)c2c1 (single isomer, unassigned) [Example 5-I] | 1.5 |
| Cc1c([C@@H](O)CNCc2cncc(-c3ccc4oc(=O)n(C)c4c3)c2)ccc2c1COC2=O [Example 120, (R)-5-(5-(((2-hydroxy-2-(4-methyl-1-oxo-1,3-dihydroisobenzofuran-5-yl)ethyl)amino)methyl)pyridin-3-yl)-3-methylbenzo[d]oxazol-2(3H)-one] | 0.12 |
| COc1cc(-c2ncc(CNC[C@H](O)c3ccc4c(c3C)COC4=O)s2)ncc1C#N [Example 129, (R)-6-(5-(((2-hydroxy-2-(4-methyl-1-oxo-1,3-dihydroisobenzofuran-5-yl)ethyl)amino)methyl)thiazol-2-yl)-4-methoxynicotinonitrile] | 0.008 |
| Cc1c(C(O)CN(C)Cc2ccc(-n3ccc4c(C#N)cccc43)nc2)ccc2c1COC2=O (single isomer, unassigned) [Example 25-I, 1-(5-(((2-hydroxy-2-(4-methyl-1-oxo-1,3-dihydroisobenzofuran-5-yl)ethyl)(methyl)amino)methyl)pyridin-2-yl)-1H-indole-4-carbonitrile] | 0.24 |
| Cc1c(C(O)CN(C)Cc2cnc(-n3ncc4c(C#N)cccc43)nc2)ccc2c1COC2=O (single isomer, unassigned) [Example 18-I, 1-(5-(((2-hydroxy-2-(4-methyl-1-oxo-1,3-dihydroisobenzofuran-5-yl)ethyl)(methyl)amino)methyl)pyrimidin-2-yl)-1H-indazole-4-carbonitrile] | 0.23 |
| Cc1c([C@@H](O)CNCc2cnn(-c3cc(N4CCOC4=O)ccn3)c2)ccc2c1COC2=O [Example 143, (R)-3-(2-(4-(((2-hydroxy-2-(4-methyl-1-oxo-1,3-dihydroisobenzofuran-5-yl)ethyl)amino)methyl)-1H-pyrazol-1-yl)pyridin-4-yl)oxazolidin-2-one] | 1 |
| CN[C@@H](CNCc1cnn(-c2cc(C)c(C#N)cn2)c1)c1ccc2c(c1C)COC2=O [Example 64, (R)-4-methyl-6-(4-(((2-(4-methyl-1-oxo-1,3-diydroisobenzofuran-5-yl)-2-(methylamino)ethyl)amino)methyl)-1H-pyrazol-1-yl)nicotinonitrile] | 0.43 |
| Cc1cc(-n2cc(CNC[C@H](O)c3ccc4c(c3C)COC4=O)cn2)cc(C)n1 [Example 164, (R)-5-(2-(((1-(2,6-dimethylpyridin-4-yl)-1H-pyrazol-4-yl)methyl)amino)-1-hydroxyethyl)-4-methylisobenzofuran-1(3H)-one] | 0.28 |
| Cc1c(C(O)CN(C)Cc2ccc(-n3ccc4cc(C#N)ccc43)cc2)ccc2c1COC2=O (single isomer, unassigned) [Example 32-I, 1-(4-(((2-hydroxy-2-(4-methyl-1-oxo-1,3-dihydroisobenzofuran-5-yl)ethyl)(methyl)amino)methyl)phenyl)-1H-indole-5-carbonitrile] | 0.53 |
| Cc1nnn(-c2ccc(CNC[C@H](O)c3ccc4c(c3C)COC4=O)cn2)n1 [Example 127, (R)-5-(1-hydroxy-2-(((6-(5-methyl-2H-tetrazol-2-yl)pyridin-3-yl)methyl)amino)ethyl)-4-methylisobenzofuran-1(3H)-one] | 0.42 |
